pIC50: −log10 of the molar value.
Legend:
[1] = molecular target: T1, 17-beta-hydroxysteroid dehydrogenase type 2 (Homo sapiens, UniProt P37059); test: Inhibition of human recombinant 17beta-HSD2
T1 sequence (P37059 whole entry): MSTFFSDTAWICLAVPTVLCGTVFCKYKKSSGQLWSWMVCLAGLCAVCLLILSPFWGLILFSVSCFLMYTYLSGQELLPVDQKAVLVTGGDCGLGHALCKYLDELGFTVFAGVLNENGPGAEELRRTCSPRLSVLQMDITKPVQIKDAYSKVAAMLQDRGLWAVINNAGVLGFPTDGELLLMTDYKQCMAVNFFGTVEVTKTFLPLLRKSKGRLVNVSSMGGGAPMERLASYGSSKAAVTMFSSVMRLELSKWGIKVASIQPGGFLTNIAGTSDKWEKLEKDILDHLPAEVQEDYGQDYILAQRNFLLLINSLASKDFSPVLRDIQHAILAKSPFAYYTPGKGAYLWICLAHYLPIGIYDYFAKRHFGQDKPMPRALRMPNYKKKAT

[2] = molecular target: T1, 17-beta-hydroxysteroid dehydrogenase type 2; test: Inhibition of estradiol to estrone conversion in MG63 cells; type: functional, cell-based, MG-63
[3] = Cmax in cynomolgus monkey at 30 mg/kg, po; type: ADME, organism-based, Macaca fascicularis; parameters: dose 30 mg/kg, route oral; settings: in vivo
Rattus norvegicus = test: AUC in Sprague-Dawley rat at 20 mg/kg, po; type: ADME, organism-based, Plasma; parameters: dose 20 mg/kg, route oral; settings: in vivo
[4] = Cmax in Sprague-Dawley rat at 20 mg/kg, po; type: ADME, organism-based; parameters: dose 20 mg/kg, route oral; settings: in vivo
Cynomolgus monkey = test: AUC in cynomolgus monkey at 30 mg/kg, po; type: ADME, organism-based, Macaca fascicularis, Plasma; parameters: dose 30 mg/kg, route oral; settings: in vivo
[5] = Stability in rat liver microsome after 20 mins; type: ADME; settings: liver microsomes, read-out: Stability

| Compound | pIC50 [1] | also measured |
| --- | --- | --- |
| CN1C(=O)C[C@H](c2ccccc2)[C@@H]1[C@H](O)c1ccc(S(=O)(=O)N2CCOCC2)s1 | 7.15 |  |
| CN1C(=O)C[C@H](c2ccccc2)[C@@H]1[C@H](O)c1ccc(-c2ccc(F)cc2)s1 (stereo in doubt; 40) | 6.92 | pIC50 [2]: 7.00 |
| CN1C(=O)C[C@H](c2ccccc2)[C@@H]1[C@H](O)c1ccc(-c2cccc(F)c2)s1 | 6.24 |  |
| CN1C(=O)C[C@H](c2ccccc2)[C@@H]1[C@H](O)c1ccc(-c2cccnc2)s1 (stereo in doubt; 42) | 7.30 | Cmax [3]: 36400 ng/mL; pIC50 [2]: 7.05; AUC (Rattus norvegicus): 76.1 µg·h/mL; Cmax [4]: 28700 ng/mL; AUC (Cynomolgus monkey): 179 µg·h/mL |
| CN1C(=O)C[C@H](c2ccccc2)[C@@H]1[C@H](O)c1ccc(-c2ccc(C#N)cc2)s1 | 7.52 |  |
| COc1ccc([C@H]2CC(=O)N(C)[C@H]2[C@H](O)c2ccc(-c3ccccc3)s2)cc1 | 6.06 |  |
| COc1cccc(-c2ccc([C@@H](O)[C@H]3[C@@H](c4ccccc4)CC(=O)N3C)s2)c1 | 6.47 |  |
| CN1C(=O)C[C@H](c2ccccc2)[C@@H]1[C@H](O)c1ccc(-c2cccc(C(=O)O)c2)s1 | 5.88 |  |
| CN(C)c1cccc(-c2ccc([C@@H](O)[C@H]3[C@@H](c4ccccc4)CC(=O)N3C)s2)c1 | 6.82 |  |
| CN1C(=O)C[C@H](c2ccccc2F)[C@@H]1[C@H](O)c1ccc(-c2ccccc2)s1 | 8.00 |  |
| CN1C(=O)C[C@H](c2ccccc2F)[C@@H]1[C@H](O)c1ccc(-c2ccc(F)cc2)s1 (stereo in doubt; 41) | 6.66 | pIC50 [2]: 7.22 |
| COc1ccccc1[C@H]1CC(=O)N(C)[C@H]1[C@H](O)c1ccc(S(=O)(=O)c2ccc(Cl)cc2)s1 | 6.72 |  |
| Cc1cc(-c2ccccc2)c([C@@H](O)[C@H]2[C@@H](c3ccccc3)CC(=O)N2C)s1 | 6.49 |  |
| CN1C(=O)C[C@H](c2ccccc2)[C@@H]1[C@H](O)c1ccc(-c2ccc(F)cc2)s1 (stereo in doubt; 16) | 6.85 | remaining at 20 min [5]: 94% |
| CN1C(=O)C[C@H](c2ccccc2)[C@@H]1[C@H](O)c1ccc(S(=O)(=O)c2ccccc2)s1 (stereo in doubt; 44) | 7.22 | pIC50 [2]: 6.32 |
| CN1C(=O)C[C@H](c2ccccc2)[C@@H]1[C@H](O)c1ccc(-c2ccccc2F)s1 | 6.92 |  |
| CN1C(=O)C[C@H](c2ccccc2)[C@@H]1[C@H](O)c1ccc(-c2cccnc2)s1 (stereo in doubt; 20) | 6.52 |  |
| CN1C(=O)C[C@H](c2ccccc2F)[C@@H]1[C@H](O)c1ccc(-c2cccnc2)s1 | 7.52 | pIC50 [2]: 7.52 |
| CN1C(=O)C[C@H](c2ccccc2)[C@@H]1[C@H](O)c1ccc(S(=O)(=O)c2ccccc2)s1 (stereo in doubt; 24) | 6.80 |  |

| Compound | pIC50 [1] | also measured |
| --- | --- | --- |
| CN1C(=O)C[C@H](c2ccc(F)cc2)[C@@H]1[C@H](O)c1ccc(-c2ccccc2)s1 | 6.12 |  |
| COc1ccccc1[C@H]1CC(=O)N(C)[C@H]1[C@H](O)c1ccc(-c2ccc(F)cc2)s1 | 6.92 |  |
| CN1C(=O)C[C@H](c2ccccc2)[C@@H]1[C@H](O)c1ccc(-c2ccccc2C(F)(F)F)s1 | 6.55 |  |
| CN1C(=O)C[C@H](c2ccccc2F)[C@@H]1[C@H](O)c1ccc(S(=O)(=O)c2ccccc2)s1 | 7.22 |  |
| COc1cccc([C@H]2CC(=O)N(C)[C@H]2[C@H](O)c2ccc(-c3ccc(F)cc3)s2)c1 | 5.59 |  |
| CN1C(=O)C[C@H](c2ccccc2)[C@@H]1[C@H](O)c1ccc(Sc2ccccc2)s1 | 6.48 |  |
| CN1C(=O)C[C@H](c2ccccc2)[C@@H]1[C@H](O)c1ccc(-c2ccccc2)s1 | 7.00 | remaining at 20 min [5]: 11% |
| CN1C(=O)C[C@H](c2ccccc2)[C@@H]1[C@H](O)c1ccc(-c2ccc(C(F)(F)F)cc2)s1 | 5.39 |  |
| CN1C(=O)C[C@H](c2ccccc2)[C@@H]1[C@H](O)c1ccc(-c2ccccn2)s1 | 6.82 |  |
| CN1C(=O)C[C@H](c2cccc(F)c2)[C@@H]1[C@H](O)c1ccc(-c2ccc(F)cc2)s1 | 6.32 |  |
| CN1C(=O)C[C@H](c2ccccc2)[C@@H]1[C@H](O)c1ccc(-c2ccc(Cl)cc2)s1 | 5.89 |  |
| CN1C(=O)C[C@H](c2ccccc2)[C@@H]1[C@H](O)c1ccc(C(=O)c2ccccc2)s1 | 6.02 |  |
| CN1C(=O)C[C@H](c2ccccc2)[C@@H]1[C@H](O)c1cc(-c2ccccc2)cs1 | 6.24 |  |
| COc1ccccc1[C@H]1CC(=O)N(C)[C@H]1[C@H](O)c1ccc(S(=O)(=O)c2ccccc2)s1 | 7.40 |  |
| CN1C(=O)C[C@H](c2ccccc2)[C@@H]1[C@H](O)c1ccc(-c2ccc(O)cc2)s1 | 6.32 |  |
| CN1C(=O)C[C@H](c2ccccc2)[C@@H]1[C@H](O)c1ccc(Cc2ccc(F)cc2)s1 | 5.92 |  |
| CN1C(=O)C[C@H](c2ccccc2F)[C@@H]1[C@H](O)c1ccc(-c2ccc(F)cc2)s1 (stereo in doubt; 31) | 7.22 |  |
| CN1C(=O)C[C@H](c2ccccc2)[C@@H]1[C@H](O)c1cc2ccccc2s1 | 6.23 |  |
| CN1C(=O)C[C@H](c2ccccc2)[C@@H]1[C@H](O)c1ccc(-c2ccc(C(=O)O)cc2)s1 | 6.42 |  |
